The values below come from patent US20140113874A1, “Modified Compstatin With Improved Stability And Binding Properties” (THE TRUSTEES OF THE UNIVERSITY OF PENNSYLVANIA, priority 2010, published 2014).

Numbered stars: 1 amine (or outer) side, 2 acyl side, 3 side chain; on linkers, the order of the positions; unused ones are H or OH. Bridge positions count the residues as written; N and C are the ends. Square brackets hold non-standard residues; d marks the D form. Peptide text beside a SMILES is read from it. Trp(1-Me) = Cn1cc(C[C@H](N)C(=O)O)c2ccccc21; Abu(4-yl) = O=C([C@H](CC[*:3])N[*:1])[*:2]; NMeI = CC[C@H](C)[C@H](NC)C(=O)O; Sar = CNCC(=O)O

In one assay the target is C3b (Homo sapiens, UniProt P01024). Put plainly: Biacore SPR kinetic analysis on captured biotinylated C3b. The conditions noted are these: 1:1 binding model; average of multiple datasets. The protocol:
The interaction of the compstatin analogs with C3b was characterized using a Biacore 3000 instrument (GE Healthcare, Corp., Piscataway, N.J.). The running buffer was PBS, pH 7.4 (10 mM sodium phosphate, 150 mM NaCl) with 0.005% Tween-20. Biotinylated C3b was captured site-specifically on a streptravidin chip at about 3000, 4000 and 5000 RU density; an untreated flowcell was used as a reference surface. For kinetic analysis, sets of five samples of increasing concentrations were injected over the chip surface one after the other in a single cycle. […] The data analysis was performed using BiaEvaluation. The processed signals were fitted to a 1:1 binding model and kinetic constants were extracted. […] 2 min injections at 30 ul/min were performed, after which a 3 min dissociation was monitored. […] Data analysis followed using Scrubber (BioLogic Software, Campbell, Australia). The processed signals were globally fitted to a Langmuir 1:1 binding isotherm and kinetic constants were extracted.
(SPR reads the build-up and loss of mass on a sensor chip optically.)

The target of the next assay is Biotinylated C3b (UniProt P01024). Put plainly: SPR (Biacore 3000), single-cycle kinetics, peptide over biotinylated C3b captured on streptavidin chip, 1:1 model.
Assay [1] relates to classical pathway of complement activation. In words: ELISA-based complement inhibition assay (antigen-antibody complex initiated, C3b deposition). The assay is classed as biochemical. As to conditions: for relative activity (rank order) in inhibition of antigen-antibody complex-initiated complement activation: FIG. 4, representative result; for IC50: read-out: IC50, concentration at which the peptides inhibit complement activation by 50%, plasma 1:80 in VB++, average of five datasets. The protocol:
An ELISA-based assay was performed to assess the complement inhibitory ability of the compstatin analogs. Briefly, an antigen-antibody complex was used as an initiator of the classical pathway of complement activation. […] Incubation followed to allow complement activation. The deposition of C3b on the plate was measured by a polyclonal anti-C3 antibody. The percentage of inhibition was plotted against the compstatin concentration and fitted to a logistic dose-response function using OriginPro 8.
A general note: ELISA stands for enzyme-linked immunosorbent assay.

The target of assay [2] is T1, Complement C3 (in plasma) (UniProt P01024 23-1663, limits assumed). In words: cell-based or functional assay.
T1 sequence (P01024 23-1663 limits assumed): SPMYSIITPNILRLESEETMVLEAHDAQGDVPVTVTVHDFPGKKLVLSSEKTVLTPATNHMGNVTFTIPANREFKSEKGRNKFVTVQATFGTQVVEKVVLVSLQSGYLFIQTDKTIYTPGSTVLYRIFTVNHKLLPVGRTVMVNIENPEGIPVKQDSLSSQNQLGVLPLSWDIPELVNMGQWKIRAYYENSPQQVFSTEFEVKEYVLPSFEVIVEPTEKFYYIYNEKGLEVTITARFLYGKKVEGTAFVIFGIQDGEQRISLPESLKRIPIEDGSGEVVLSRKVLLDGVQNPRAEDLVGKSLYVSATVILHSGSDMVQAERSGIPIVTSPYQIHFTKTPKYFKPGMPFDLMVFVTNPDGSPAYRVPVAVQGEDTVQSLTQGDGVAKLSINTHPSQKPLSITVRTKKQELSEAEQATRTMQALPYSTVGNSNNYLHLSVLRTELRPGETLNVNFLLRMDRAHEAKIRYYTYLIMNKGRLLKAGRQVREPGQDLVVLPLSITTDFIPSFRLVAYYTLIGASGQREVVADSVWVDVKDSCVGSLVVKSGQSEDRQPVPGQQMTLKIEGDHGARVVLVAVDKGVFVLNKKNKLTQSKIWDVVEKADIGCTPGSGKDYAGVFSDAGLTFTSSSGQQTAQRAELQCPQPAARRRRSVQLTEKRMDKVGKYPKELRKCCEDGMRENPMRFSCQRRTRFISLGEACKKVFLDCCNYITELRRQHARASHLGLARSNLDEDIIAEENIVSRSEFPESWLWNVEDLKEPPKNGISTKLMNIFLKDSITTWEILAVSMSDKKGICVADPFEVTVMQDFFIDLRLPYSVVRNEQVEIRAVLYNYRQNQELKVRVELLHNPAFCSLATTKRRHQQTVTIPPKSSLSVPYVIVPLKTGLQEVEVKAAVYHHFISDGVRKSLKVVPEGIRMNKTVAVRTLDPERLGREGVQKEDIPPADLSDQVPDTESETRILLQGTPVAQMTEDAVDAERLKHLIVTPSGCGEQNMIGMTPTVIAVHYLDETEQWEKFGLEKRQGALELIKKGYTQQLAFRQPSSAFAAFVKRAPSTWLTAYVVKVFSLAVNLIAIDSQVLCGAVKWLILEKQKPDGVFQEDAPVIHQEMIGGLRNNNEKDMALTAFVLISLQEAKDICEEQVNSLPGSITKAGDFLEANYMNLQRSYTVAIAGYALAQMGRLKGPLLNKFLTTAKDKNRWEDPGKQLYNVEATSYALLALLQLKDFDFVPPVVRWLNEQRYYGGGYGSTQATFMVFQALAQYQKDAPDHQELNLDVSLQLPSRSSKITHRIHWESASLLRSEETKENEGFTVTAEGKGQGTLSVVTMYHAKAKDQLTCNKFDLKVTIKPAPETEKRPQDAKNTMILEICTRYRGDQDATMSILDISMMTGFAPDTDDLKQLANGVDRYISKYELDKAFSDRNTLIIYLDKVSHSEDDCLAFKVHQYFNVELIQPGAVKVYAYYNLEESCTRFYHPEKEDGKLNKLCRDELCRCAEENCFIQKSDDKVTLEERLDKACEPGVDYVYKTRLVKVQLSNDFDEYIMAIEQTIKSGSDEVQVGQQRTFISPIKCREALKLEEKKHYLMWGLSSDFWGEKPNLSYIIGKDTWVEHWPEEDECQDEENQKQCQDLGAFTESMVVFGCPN
The target of assay [3] is T1, Complement C3 (in plasma). In words: cell-based or functional assay. The source holds these as a separate data set.

Sequence of C3b (P01024 23-667 limits assumed): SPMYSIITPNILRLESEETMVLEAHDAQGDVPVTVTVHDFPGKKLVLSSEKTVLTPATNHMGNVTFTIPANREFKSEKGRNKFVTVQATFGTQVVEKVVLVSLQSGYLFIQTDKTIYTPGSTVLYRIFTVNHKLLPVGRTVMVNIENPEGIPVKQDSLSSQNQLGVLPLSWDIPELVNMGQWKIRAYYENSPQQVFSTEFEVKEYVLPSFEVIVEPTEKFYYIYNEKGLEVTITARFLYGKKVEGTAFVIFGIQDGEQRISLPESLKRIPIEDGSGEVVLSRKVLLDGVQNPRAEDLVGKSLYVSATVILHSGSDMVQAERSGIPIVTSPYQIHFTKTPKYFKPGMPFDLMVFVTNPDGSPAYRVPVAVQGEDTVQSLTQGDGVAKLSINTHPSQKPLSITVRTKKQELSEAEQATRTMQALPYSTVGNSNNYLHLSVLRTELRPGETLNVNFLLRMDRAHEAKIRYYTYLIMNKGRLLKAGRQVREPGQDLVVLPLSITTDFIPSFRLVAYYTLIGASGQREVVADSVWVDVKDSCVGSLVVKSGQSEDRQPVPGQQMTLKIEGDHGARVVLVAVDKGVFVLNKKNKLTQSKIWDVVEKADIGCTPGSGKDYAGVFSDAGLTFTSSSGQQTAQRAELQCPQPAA
Sequence of C3b (P01024 749-1663 partner limits assumed): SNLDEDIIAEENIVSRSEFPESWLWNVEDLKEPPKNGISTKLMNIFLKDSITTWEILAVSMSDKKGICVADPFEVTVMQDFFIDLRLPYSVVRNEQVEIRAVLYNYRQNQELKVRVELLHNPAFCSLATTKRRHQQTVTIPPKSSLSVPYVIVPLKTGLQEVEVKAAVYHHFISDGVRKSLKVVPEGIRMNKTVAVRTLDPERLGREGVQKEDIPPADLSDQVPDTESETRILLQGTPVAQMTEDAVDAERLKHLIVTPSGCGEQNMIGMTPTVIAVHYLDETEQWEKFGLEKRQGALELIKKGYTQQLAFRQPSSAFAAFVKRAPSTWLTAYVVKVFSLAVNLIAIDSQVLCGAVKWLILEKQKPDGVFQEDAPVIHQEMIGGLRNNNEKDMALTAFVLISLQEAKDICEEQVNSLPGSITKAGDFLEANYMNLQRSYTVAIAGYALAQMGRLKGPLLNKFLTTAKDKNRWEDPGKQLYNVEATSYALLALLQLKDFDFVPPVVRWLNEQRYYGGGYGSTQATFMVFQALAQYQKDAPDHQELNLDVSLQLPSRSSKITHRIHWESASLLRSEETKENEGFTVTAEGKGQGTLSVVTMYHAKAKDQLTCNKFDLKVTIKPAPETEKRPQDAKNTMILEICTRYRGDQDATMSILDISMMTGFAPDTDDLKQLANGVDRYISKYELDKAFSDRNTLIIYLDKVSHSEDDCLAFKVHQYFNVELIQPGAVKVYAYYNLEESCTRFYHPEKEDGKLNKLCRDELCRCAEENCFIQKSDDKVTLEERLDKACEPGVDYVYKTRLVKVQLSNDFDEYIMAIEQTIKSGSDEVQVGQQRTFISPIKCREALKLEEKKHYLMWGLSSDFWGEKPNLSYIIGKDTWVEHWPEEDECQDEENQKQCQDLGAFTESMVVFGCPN

Consider `CC[C@H](C)[C@H](NC(C)=O)C(=O)N[C@H]1CCSC[C@@H](C(=O)N[C@H](C(N)=O)[C@@H](C)O)NC(=O)[C@H](CCCNC(=N)N)NC(=O)[C@H](Cc2c[nH]cn2)NC(=O)[C@H](C)NC(=O)CNC(=O)[C@H](Cc2c[nH]c3ccccc23)NC(=O)[C@H](CC(=O)O)NC(=O)[C@H](CCC(N)=O)NC(=O)[C@H](Cc2c[nH]c3ccccc23)NC(=O)[C@H](C(C)C)NC1=O` [Gamma-Cth] (Ac-I[Abu(4-yl)]VWQDWGAHRCT-NH2; thioether 2-12), for which the kd on C3b is given as 46.8 ± 5.7 10^−2 s^−1.
On to `CC[C@H](C)[C@H](NC(C)=O)C(=O)N[C@H]1CSCC[C@@H](C(=O)N[C@H](C(N)=O)[C@@H](C)O)NC(=O)[C@H](CCCNC(=N)N)NC(=O)[C@H](Cc2c[nH]cn2)NC(=O)[C@H](C)NC(=O)CNC(=O)[C@H](Cc2c[nH]c3ccccc23)NC(=O)[C@H](CC(=O)O)NC(=O)[C@H](CCC(N)=O)NC(=O)[C@H](Cc2c[nH]c3ccccc23)NC(=O)[C@H](C(C)C)NC1=O` [Delta-Cth] (Ac-ICVWQDWGAHR[Abu(4-yl)]T-NH2; thioether 2-12), for which, at C3b, the kd is reported as 11 ± 1.9 10^−2 s^−1.
As a reminder, the Kd is the free concentration of one partner at which half of the binding sites on the other are occupied at equilibrium, for simple one-to-one binding. Lower therefore signals tighter binding. What is called koff is the first-order rate constant of dissociation. One may read the kon as the second-order rate constant of association. Lower therefore signals slow association. In the assay with Biotinylated C3b, “CP20 compstatin analog (disulfide control) (peptide)” showed a Kd of 2.4 nM, an off-rate constant (koff) of 0.004 s⁻¹ and an on-rate (kon) of 1.86e+06 M⁻¹ s⁻¹.
For the molecule `CC[C@H](C)[C@H](NC(C)=O)C(=O)N[C@H]1CSCC[C@@H](C(=O)N(C)[C@H](C(N)=O)[C@@H](C)CC)NC(=O)[C@H](CCCNC(=N)N)NC(=O)[C@H](Cc2c[nH]cn2)NC(=O)[C@H](C)NC(=O)CN(C)C(=O)[C@H](Cc2c[nH]c3ccccc23)NC(=O)[C@H](CC(=O)O)NC(=O)[C@H](CCC(N)=O)NC(=O)[C@H](Cc2cn(C)c3ccccc23)NC(=O)[C@H](C(C)C)NC1=O` [Delta-Cth CP20, Ac-Ic[CV(^1-MeW)QDW(^N-MeG)AHRC](^N-MeI)-NH2] (Ac-ICV[Trp(1-Me)]QDW[Sar]AHR[Abu(4-yl)][NMeI]-NH2; thioether 2-12), on C3b, the kd is recorded as 1.5 ± 0.4 10^−2 s^−1. In assay [1], the “relative activity (rank order) in inhibition of antigen-antibody complex-initiated complement activation” value is “CP20>delta-Cth CP20>4W9A>delta-Cth>gamma-Cth” and the IC50 was determined as 260 ± 90 nM.
On the same counts, the results for `CC[C@H](C)[C@H](NC(C)=O)C(=O)N[C@H]1CSSC[C@@H](C(=O)N(C)[C@H](C(N)=O)[C@@H](C)CC)NC(=O)[C@H](CCCNC(=N)N)NC(=O)[C@H](Cc2c[nH]cn2)NC(=O)[C@H](C)NC(=O)CN(C)C(=O)[C@H](Cc2c[nH]c3ccccc23)NC(=O)[C@H](CC(=O)O)NC(=O)[C@H](CCC(N)=O)NC(=O)[C@H](Cc2cn(C)c3ccccc23)NC(=O)[C@H](C(C)C)NC1=O` [CP20, AC-Ic[CV(^1-MeW)QDW(^N-MeG)AHRC](^N-MeI)-NH2, reference compound] are 0.4 ± 0.1 10^−2 s^−1, “CP20>delta-Cth CP20>4W9A>delta-Cth>gamma-Cth” and 130 ± 50 nM.

B1: CP20 compstatin analog (disulfide control) (peptide)
peptide: Ac-ICV[Trp(1-Me)]QDW[Sar]AHRC[NMeI]-NH2
modifications: disulfide 2-12
SMILES: CC[C@H](C)[C@H](NC(C)=O)C(=O)N[C@H]1CSSC[C@@H](C(=O)N(C)[C@H](C(N)=O)[C@@H](C)CC)NC(=O)[C@H](CCCNC(=N)N)NC(=O)[C@H](Cc2c[nH]cn2)NC(=O)[C@H](C)NC(=O)CN(C)C(=O)[C@H](Cc2c[nH]c3ccccc23)NC(=O)[C@H](CC(=O)O)NC(=O)[C@H](CCC(N)=O)NC(=O)[C@H](Cc2cn(C)c3ccccc23)NC(=O)[C@H](C(C)C)NC1=O
Turning to B1, the “IC50 (read off the curve)” value in assay [2] was roughly 100 nM. Further, the “IC50, inhibition of antigen-antibody complex-initiated (classical pathway) complement activation, C3b deposition ELISA” value in assay [3] stood at 130 nM.

B2: CP20 delta-Cth (delta-cystathionine CP20 compstatin analog) (peptide)
peptide: ICVWQDWGAHRCI
modifications: N-terminal acetyl (Ac-Ile1); 1-methyl-Trp at position 4; N-methyl-Gly at position 8; N-methyl-Ile at position 13; C-terminal amide (-NH2); C2-C12 thioether bond forming delta-cystathionine
As to B2, the “IC50 (read off the curve)” value in assay [2] was roughly 300 nM. Moreover, the “IC50, inhibition of antigen-antibody complex-initiated (classical pathway) complement activation, C3b deposition ELISA” value in assay [3] came out at 260 nM.
